Columns and labels:
AMBEL (Ragweed, Common) = assay: Preemergence herbicidal evaluation; assay type: in vivo, Ambrosia artemisifolia; conditions: rated 4-5 weeks after treatment
In short: (§1)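 Seeds were mixed with potting soil and planted on about one inch of soil, then sprayed with test compound in aqueous acetone at about 0.0156 to 0.500 kg per hectare. Plants grew under standard greenhouse care and were visually rated 0-9 against untreated controls 4-5 weeks post-treatment.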

ECHCG (Barnyardgrass) = assay: Preemergence herbicidal evaluation; assay type: in vivo, Echinochloa crus-galli; conditions: rated 4-5 weeks after treatment
In short: as §1

[1] = test system: ECHORC (Watergrass (Calif.)); assay: Preemergence weed control under flooded paddy conditions; assay type: in vivo, Echinochloa oryzoides; conditions: rated 3-4 weeks after treatment
In short: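 Seeds or propagules sown in silt loam kept flooded 1.5-3 cm; compounds in 50/50 acetone/water pipetted into flood water at about 0.0313 to 0.500 kg/ha. Greenhouse; visual 0-9 rating versus untreated control 3-4 weeks after treatment.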

SETVI (Foxtail, Green) = assay: Postemergence herbicidal evaluation; assay type: in vivo, Setaria viridis
In short: (§2)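 Two-week-old seedlings sprayed with compound in 50/50 acetone/water plus 0.5% TWEEN 20, at about 0.0156 to 0.500 kg/ha, nozzle at 40 psi. Kept in greenhouse; rated visually 4-5 weeks after treatment on a 0-9 scale versus control, repeat tests averaged.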

[2] = test system: IPOHE (Morningglory, Ivyleaf); assay: Preemergence herbicidal evaluation; assay type: in vivo, Ipomoea hederacea; conditions: rated 4-5 weeks after treatment
In short: as §1

[3] = test system: GLXMAW (Soybean, Williams); assay: Postemergence herbicidal evaluation; assay type: in vivo, Glycine max, (L.) Merr. cv Williams
In short: as §2

ABUTH (Velvetleaf) [4] = assay: Preemergence herbicidal evaluation; assay type: in vivo, Abutilon theophrasti; conditions: rated 4-5 weeks after treatment
In short: as §1

[5] = test system: ECHORC (Watergrass (Calif.)); assay: Postemergence weed control under flooded paddy conditions; assay type: in vivo, Echinochloa oryzoides; conditions: postemergence weeds
In short: (§3)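 Containers holding 3–5 cm weeds and rice at 1.5–2.5 leaves are flooded to 1.5–3 cm above soil. Compound in 50/50 v/v aqueous/acetone is then added directly to the water, about 0.0313–0.500 kg/ha. Plants are kept in the greenhouse and rated 0–9 visually at 3–4 weeks.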

[6] = test system: IPOHE (Morningglory, Ivyleaf); assay: Postemergence herbicidal evaluation; assay type: in vivo, Ipomoea hederacea
In short: as §2

CASOB (Sicklepod) = assay: Preemergence herbicidal evaluation; assay type: in vivo, Cassia obtusifolia; conditions: rated 4-5 weeks after treatment
In short: as §1

CYPSE (Flatsedge) = assay: Preemergence weed control under flooded paddy conditions; assay type: in vivo, Cyperus serotinus; conditions: rated 3-4 weeks after treatment
In short: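 Flooded-pot preemergence screen with silt loam and seeds in the upper 0.5 cm. Dose about 0.0313 to 0.500 kg/ha, delivered into flood water; visual 0-9 score after 3 to 4 weeks.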

ZEAMX (Corn, Field) = assay: Postemergence herbicidal evaluation; assay type: in vivo, Zea mays
In short: as §2

ABUTH (Velvetleaf) [7] = assay: Postemergence herbicidal evaluation; assay type: in vivo, Abutilon theophrasti
In short: as §2

CYPIR (Rice Flatsedge) = assay: Postemergence weed control under flooded paddy conditions; assay type: in vivo, Cyperus iria; conditions: postemergence weeds
In short: as §3

[8] = rate 0.0313 kg/ha, 3-4 weeks after treatment
[9] = rate 0.0625 kg/ha, 3-4 weeks after treatment
[10] = rate 0.1250 kg/ha, 3-4 weeks after treatment
[11] = rate 0.2500 kg/ha, 3-4 weeks after treatment
[12] = Rate 0.2500 kg/ha, rated 3 to 4 weeks after treatment

## CCOC(=O)CN1C(=O)C(CC(=O)OC)S/C1=N/c1cc(-n2c(=O)cc(C(F)(F)F)n(C)c2=O)c(F)cc1Cl (stereo not drawn) [Compound 54, 2-{{2-Chloro-5-[3,6-dihydro-3-methyl-2,6-dioxo-4-(trifluoromethyl)-1(2H)-pyrimidinyl]-4-fluorophenyl}imino}-4-oxo-3,5-thiazolidinediacetic acid, 3-ethyl methyl ester]
AMBEL (Ragweed, Common); rate 0.0156 kg/ha
  Preemergence herbicidal rating AMBEL: 0.0
AMBEL (Ragweed, Common); rate 0.0313 kg/ha
  Preemergence herbicidal rating AMBEL: 0.5
AMBEL (Ragweed, Common); rate 0.0625 kg/ha
  Preemergence herbicidal rating AMBEL: 8.0
AMBEL (Ragweed, Common); rate 0.1250 kg/ha
  Preemergence herbicidal rating AMBEL: 9.0
AMBEL (Ragweed, Common); rate 0.2500 kg/ha
  Preemergence herbicidal rating AMBEL: 9.0
AMBEL (Ragweed, Common); rate 0.5000 kg/ha
  Preemergence herbicidal rating AMBEL: 9.0
ECHCG (Barnyardgrass); rate 0.0156 kg/ha
  Preemergence herbicidal rating ECHCG: 0.0
ECHCG (Barnyardgrass); rate 0.0313 kg/ha
  Preemergence herbicidal rating ECHCG: 0.0
ECHCG (Barnyardgrass); rate 0.0625 kg/ha
  Preemergence herbicidal rating ECHCG: 0.0
ECHCG (Barnyardgrass); rate 0.1250 kg/ha
  Preemergence herbicidal rating ECHCG: 2.0
ECHCG (Barnyardgrass); rate 0.2500 kg/ha
  Preemergence herbicidal rating ECHCG: 5.0
ECHCG (Barnyardgrass); rate 0.5000 kg/ha
  Preemergence herbicidal rating ECHCG: 9.0
[1]; 0.0313 kg/ha
  Herbicidal rating ECHORC: 5.0
[1]; 0.0625 kg/ha
  Herbicidal rating ECHORC: 5.0
[1]; 0.1250 kg/ha
  Herbicidal rating ECHORC: 7.0
[1]; 0.2500 kg/ha
  Herbicidal rating ECHORC: 9.0
SETVI (Foxtail, Green); Rate 0.0158 kg/ha
  Postemergence herbicidal rating SETVI: 9.0
SETVI (Foxtail, Green); Rate 0.0315 kg/ha
  Postemergence herbicidal rating SETVI: 9.0
SETVI (Foxtail, Green); Rate 0.0630 kg/ha
  Postemergence herbicidal rating SETVI: 9.0
[2]; rate 0.0156 kg/ha
  Preemergence herbicidal rating IPOHE: 1.5
[2]; rate 0.0313 kg/ha
  Preemergence herbicidal rating IPOHE: 6.0
[2]; rate 0.0625 kg/ha
  Preemergence herbicidal rating IPOHE: 9.0
[2]; rate 0.1250 kg/ha
  Preemergence herbicidal rating IPOHE: 7.5
[2]; rate 0.2500 kg/ha
  Preemergence herbicidal rating IPOHE: 9.0
[2]; rate 0.5000 kg/ha
  Preemergence herbicidal rating IPOHE: 9.0
[3]; Rate 0.0158 kg/ha
  Postemergence herbicidal rating GLXMAW: 9.0
[3]; Rate 0.0315 kg/ha
  Postemergence herbicidal rating GLXMAW: 9.0
[3]; Rate 0.0630 kg/ha
  Postemergence herbicidal rating GLXMAW: 9.0
ABUTH (Velvetleaf) [4]; rate 0.0156 kg/ha
  Preemergence herbicidal rating ABUTH: 4.5
ABUTH (Velvetleaf) [4]; rate 0.0313 kg/ha
  Preemergence herbicidal rating ABUTH: 7.5
ABUTH (Velvetleaf) [4]; rate 0.0625 kg/ha
  Preemergence herbicidal rating ABUTH: 9.0
ABUTH (Velvetleaf) [4]; rate 0.1250 kg/ha
  Preemergence herbicidal rating ABUTH: 9.0
ABUTH (Velvetleaf) [4]; rate 0.2500 kg/ha
  Preemergence herbicidal rating ABUTH: 9.0
ABUTH (Velvetleaf) [4]; rate 0.5000 kg/ha
  Preemergence herbicidal rating ABUTH: 9.0
[5]; [8]
  Herbicidal rating ECHORC: 5.0
[5]; [9]
  Herbicidal rating ECHORC: 5.0
[5]; [10]
  Herbicidal rating ECHORC: 7.0
[5]; [11]
  Herbicidal rating ECHORC: 9.0
[6]; Rate 0.0158 kg/ha
  Postemergence herbicidal rating IPOHE: 9.0
[6]; Rate 0.0315 kg/ha
  Postemergence herbicidal rating IPOHE: 9.0
[6]; Rate 0.0630 kg/ha
  Postemergence herbicidal rating IPOHE: 9.0
CASOB (Sicklepod); rate 0.0156 kg/ha
  Preemergence herbicidal rating CASOB: 0.0
CASOB (Sicklepod); rate 0.0313 kg/ha
  Preemergence herbicidal rating CASOB: 0.0
CASOB (Sicklepod); rate 0.0625 kg/ha
  Preemergence herbicidal rating CASOB: 0.0
CASOB (Sicklepod); rate 0.1250 kg/ha
  Preemergence herbicidal rating CASOB: 4.5
CASOB (Sicklepod); rate 0.2500 kg/ha
  Preemergence herbicidal rating CASOB: 6.0
CASOB (Sicklepod); rate 0.5000 kg/ha
  Preemergence herbicidal rating CASOB: 9.0
CYPSE (Flatsedge); 0.0313 kg/ha
  Herbicidal rating CYPSE: 0.0
CYPSE (Flatsedge); 0.0625 kg/ha
  Herbicidal rating CYPSE: 0.0
CYPSE (Flatsedge); 0.1250 kg/ha
  Herbicidal rating CYPSE: 0.0
CYPSE (Flatsedge); 0.2500 kg/ha
  Herbicidal rating CYPSE: 4.0
ZEAMX (Corn, Field); Rate 0.0158 kg/ha
  Postemergence herbicidal rating ZEAMX: 7.5
ZEAMX (Corn, Field); Rate 0.0315 kg/ha
  Postemergence herbicidal rating ZEAMX: 8.0
ZEAMX (Corn, Field); Rate 0.0630 kg/ha
  Postemergence herbicidal rating ZEAMX: 9.0
ABUTH (Velvetleaf) [7]; Rate 0.0158 kg/ha
  Postemergence herbicidal rating ABUTH: 9.0
ABUTH (Velvetleaf) [7]; Rate 0.0315 kg/ha
  Postemergence herbicidal rating ABUTH: 9.0
ABUTH (Velvetleaf) [7]; Rate 0.0630 kg/ha
  Postemergence herbicidal rating ABUTH: 9.0
CYPIR (Rice Flatsedge); [8]
  Herbicidal rating CYPIR: 0.0
CYPIR (Rice Flatsedge); [9]
  Herbicidal rating CYPIR: 4.0
CYPIR (Rice Flatsedge); [10]
  Herbicidal rating CYPIR: 4.0
CYPIR (Rice Flatsedge); [11]
  Herbicidal rating CYPIR: 4.0

## Cn1c(C(F)(F)F)cc(=O)n(-c2cc(/N=C3/SC(CC(=O)O)C(=O)N3CC(=O)O)c(Cl)cc2F)c1=O (stereo not drawn) [Compound 61, 2-{{2-Chloro-5-[3,6-dihydro-3-methyl-2,6-dioxo-4-(trifluoromethyl)-1(2H)-pyrimidinyl]-4-fluorophenyl}imino}-4-oxo-3,5-thiazolidinediacetic acid]
AMBEL (Ragweed, Common); rate 0.1250 kg/ha
  Preemergence herbicidal rating AMBEL: 0.0
AMBEL (Ragweed, Common); rate 0.2500 kg/ha
  Preemergence herbicidal rating AMBEL: 0.0
ECHCG (Barnyardgrass); rate 0.1250 kg/ha
  Preemergence herbicidal rating ECHCG: 0.0
ECHCG (Barnyardgrass); rate 0.2500 kg/ha
  Preemergence herbicidal rating ECHCG: 0.0
[1]; 0.2500 kg/ha
  ECHORC herbicidal effect rating: 0.0
SETVI (Foxtail, Green); Rate 0.0158 kg/ha
  Postemergence herbicidal rating SETVI: 0.0
SETVI (Foxtail, Green); Rate 0.0315 kg/ha
  Postemergence herbicidal rating SETVI: 0.0
SETVI (Foxtail, Green); Rate 0.0630 kg/ha
  Postemergence herbicidal rating SETVI: 2.0
[2]; rate 0.1250 kg/ha
  Preemergence herbicidal rating IPOHE: 0.0
[2]; rate 0.2500 kg/ha
  Preemergence herbicidal rating IPOHE: 0.0
[3]; Rate 0.0158 kg/ha
  Postemergence herbicidal rating GLXMAW: 2.0
[3]; Rate 0.0315 kg/ha
  Postemergence herbicidal rating GLXMAW: 3.0
[3]; Rate 0.0630 kg/ha
  Postemergence herbicidal rating GLXMAW: 4.0
ABUTH (Velvetleaf) [4]; rate 0.1250 kg/ha
  Preemergence herbicidal rating ABUTH: 0.0
ABUTH (Velvetleaf) [4]; rate 0.2500 kg/ha
  Preemergence herbicidal rating ABUTH: 1.0
[5]; [12]
  Herbicidal rating ECHORC: 0.0
[6]; Rate 0.0158 kg/ha
  Postemergence herbicidal rating IPOHE: 1.0
[6]; Rate 0.0315 kg/ha
  Postemergence herbicidal rating IPOHE: 2.0
[6]; Rate 0.0630 kg/ha
  Postemergence herbicidal rating IPOHE: 1.0
CASOB (Sicklepod); rate 0.1250 kg/ha
  Preemergence herbicidal rating CASOB: 0.0
CASOB (Sicklepod); rate 0.2500 kg/ha
  Preemergence herbicidal rating CASOB: 1.0
CYPSE (Flatsedge); 0.2500 kg/ha
  CYPSE herbicidal effect rating: 0.0
ZEAMX (Corn, Field); Rate 0.0158 kg/ha
  Postemergence herbicidal rating ZEAMX: 2.0
ZEAMX (Corn, Field); Rate 0.0315 kg/ha
  Postemergence herbicidal rating ZEAMX: 2.0
ZEAMX (Corn, Field); Rate 0.0630 kg/ha
  Postemergence herbicidal rating ZEAMX: 3.0
ABUTH (Velvetleaf) [7]; Rate 0.0158 kg/ha
  Postemergence herbicidal rating ABUTH: 0.0
ABUTH (Velvetleaf) [7]; Rate 0.0315 kg/ha
  Postemergence herbicidal rating ABUTH: 0.0
ABUTH (Velvetleaf) [7]; Rate 0.0630 kg/ha
  Postemergence herbicidal rating ABUTH: 0.0
CYPIR (Rice Flatsedge); [12]
  Herbicidal rating CYPIR: 0.0

Source: patent US20020137929A1, “1 - (3-heterocyclylphenyl) isothiourea, -isourea, -guanidine and -amidine herbicidal agents” (Intellectual Property Department, BASF Aktiengesellschaft, priority 1998, published 2002)
